≈ marks a conversion by molar mass, not a printed value. Where “and” joins values, the source holds several entries; their conditions need not be identical. Identical values can stand only once.
Experiments:
[1] = tested on: P. falciparum K1 strain; format: cell-based; settings: Plasmodium falciparum, K1, read-out: IC50 P. falciparum BS
[2] = tested on: P. yoelii liver stages (PyGFP sporozoites); assay: Liver stage growth inhibition, flow cytometric; format: cell-based; settings: Plasmodium yoelii, 43 h, read-out: IC50 P. yoelii LS FC
[3] = tested on: P. yoelii liver stages; assay: Liver stage growth inhibition, immunofluorescence analysis; format: cell-based; settings: Plasmodium yoelii, 43 h, read-out: IC50 P. yoelii LS IFA
[4] = molecular target: T1, PfFabI (Plasmodium falciparum, UniProt Q9BH77); assay: biochemical; format: biochemical; settings: for Ki: Ki PfFabI
T1 sequence (Q9BH77 22-432): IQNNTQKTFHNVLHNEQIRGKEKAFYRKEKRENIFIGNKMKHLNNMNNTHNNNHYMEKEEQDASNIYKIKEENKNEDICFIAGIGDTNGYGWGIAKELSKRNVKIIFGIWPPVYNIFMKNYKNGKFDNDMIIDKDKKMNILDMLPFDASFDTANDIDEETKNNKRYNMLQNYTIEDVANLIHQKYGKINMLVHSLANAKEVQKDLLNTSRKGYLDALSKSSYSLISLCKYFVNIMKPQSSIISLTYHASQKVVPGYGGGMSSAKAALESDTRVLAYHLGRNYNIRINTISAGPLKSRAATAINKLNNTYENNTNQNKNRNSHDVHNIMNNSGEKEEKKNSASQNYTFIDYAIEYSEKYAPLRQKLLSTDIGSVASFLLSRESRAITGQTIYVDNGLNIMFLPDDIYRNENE

[5] = molecular target: T2, PfFabZ (Plasmodium falciparum, UniProt Q965D7); assay: biochemical; format: biochemical
T2 sequence (Q965D7 19-230): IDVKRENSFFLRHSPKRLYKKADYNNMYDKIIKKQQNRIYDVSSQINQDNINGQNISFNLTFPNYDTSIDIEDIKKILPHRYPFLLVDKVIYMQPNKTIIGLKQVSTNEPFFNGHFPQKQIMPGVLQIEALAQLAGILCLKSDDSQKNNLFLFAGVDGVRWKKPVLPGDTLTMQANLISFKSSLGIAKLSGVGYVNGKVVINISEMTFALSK

[6] = molecular target: PfFabG (Plasmodium falciparum, UniProt Q8I2S7); assay: biochemical; format: biochemical
[7] = tested on: L. donovani strain MHOM/ET/67/L82; assay: Leishmanicidal activity, axenic amastigotes; format: cell-based; settings: Leishmania donovani, 72 h, read-out: IC50 Leishmania donovani
[8] = Cytotoxicity against L6 cells; format: cell-based, rat; settings: rat
[9] = tested on: HepG2:CD81 cells; assay: Toxicity to hepatoma cells; format: cell-based; settings: FC (7-AAD) or IFA (DAPI)
[10] = molecular target: mycobacterial InhA (MtFabI) enzyme; settings: read-out: Ki InhA (MtFabI); competitive inhibition; cited from earlier work
[11] = tested on: L6 cells; assay: Cytotoxicity against L6 cells; format: cell-based, rat; settings: highest test concentration 90 μg/ml
[12] = tested on: LS development; settings: cited from earlier work
[13] = tested on: late liver phases of P. berghei; settings: cited from earlier work

CCCCCCCCCCCCCC#CC(=O)O [2-HDA, 2-Hexadecynoic acid]
IC50 [1]: 10.4 µg/mL (≈ 41.2 µM) | IC50 [2]: 15.3 µg/mL (≈ 60.6 µM) | IC50 [3]: 4.88 µg/mL (≈ 19.3 µM) | IC50 [4]: 1510 nM | Ki ([4]; cofactor (NADH) varied): 2580 nM | Ki ([4]; substrate (crotonyl-CoA) varied): 2890 nM and 2900 nM | Inhibition type PfFabI ([4]; with respect to crotonyl-CoA and the cofactor NADH): non-competitive | IC50 [5]: 2300 nM | Inhibition type PfFabZ ([5]; with respect to the substrate): competitive | IC50 [6]: 13900 nM | Ki ([6]; Ki PfFabG, cofactor NADPH varied): 6000 nM | Inhibition type PfFabG ([6]; cofactor NADPH varied): non-competitive | Inhibition type PfFabG ([6]; substrate acetoacetyl-CoA varied): competitive | IC50 [7]: 4.5 µg/mL (≈ 17.8 µM) | IC50 at 72 h [8]: 85.9 µg/mL (≈ 340 µM) | Toxicity against HepG2:CD81 hepatoma cells (in words) [9]: non-toxic | Ki [10]: 2100 ± 600 nM

CCCCCCCCCCC#CCCCC(=O)O [5-HDA, 5-Hexadecynoic acid]
IC50 [6]: > 396000 nM | Toxicity against L6 cells (in words) [11]: completely non-toxic

CCCCCCCCCC#CCCCCC(=O)O [6-HDA, 6-Hexadecynoic acid]
IC50 [6]: > 396000 nM

CCCCCCC#CCCCCCCCC(=O)O [9-HDA, 9-Hexadecynoic acid]
IC50 [1]: 10.3 µg/mL (≈ 40.8 µM) | IC50 [6]: > 396000 nM

CCCCCCCCCCCCCCCC(=O)O [PA, Palmitic acid, reference compound]
IC50 [4]: > 390000 nM | IC50 [6]: > 390000 nM

Oc1c(Cl)cc(Cl)c(Cl)c1Cc1c(O)c(Cl)cc(Cl)c1Cl [hexachlorophene]
IC50 LS development in vitro [12]: 1.95 µg/mL (≈ 4.79 µM) | IC50 ([12]; read-out: IC50 LS development in vitro): 4800 nM

Oc1cc(Cl)ccc1Oc1ccc(Cl)cc1Cl [triclosan]
IC50 late liver phases of P. berghei [13]: 11.4 µg/mL | IC50 ([13]; read-out: IC50 late liver phases of P. berghei): 39400 nM

Reference: article PMC2981824 (Bioorganic & medicinal chemistry, 2010)
